# Like-named read-outs stand apart in the source and are kept apart here.
# Columns and labels:
# [1] = system: CDK9 downstream targets in 22Rv1 and LASCPC-01; test: Western blot analysis of nuclear extract; assay type: cell-based
# Description: Cytoplasmic and nuclear extracts from these cells were separated using NE-PER Nuclear and Cytoplasmic Extraction Kit (ThermoFisher). […] Relative protein expression of CDK9, N-Myc and other downstream signaling was quantified by GraphPad Prism 8 and ImageJ Software RT-PCR Gene.
# Then cells were harvested with PBS and fixed with ice-cold 70% ethanol at −20° C. overnight. The cells were then washed with ice-cold PBS 2× and then re-suspended in DAPI staining buffer and incubated in the dark for 30 minutes. The cells were analyzed using BD Fortessa flow cytometer and cell cycle distribution was analyzed using FlowJo and GraphPad Prism 8 Software.
# C4-2 = test: Annexin V/7-AAD apoptosis assay; assay type: cell-based; conditions: C4-2, treated for 72 hours
# CDK3/cyclinE = CDK3/cyclinE (Homo sapiens, UniProt Q00526); test: DiscoveRx KINOMEscan Kd (KdELECT); assay type: binding
# Sequence of CDK3/cyclinE (Q00526 whole entry): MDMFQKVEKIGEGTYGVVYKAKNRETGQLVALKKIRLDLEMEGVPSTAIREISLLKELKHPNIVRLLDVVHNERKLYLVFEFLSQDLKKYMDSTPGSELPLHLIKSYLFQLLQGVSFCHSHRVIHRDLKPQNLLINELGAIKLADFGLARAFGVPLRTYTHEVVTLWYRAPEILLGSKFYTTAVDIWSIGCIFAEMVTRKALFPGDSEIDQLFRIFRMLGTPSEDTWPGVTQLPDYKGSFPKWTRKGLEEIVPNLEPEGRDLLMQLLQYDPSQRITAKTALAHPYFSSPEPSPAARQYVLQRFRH
# Description: (§1) CDKs family kinases profiling assays were performed with DiscoveRx Matrix of Kds KINOMEscan (KdELECT) and Reaction Biology using miniaturized radioisotope-based assay platform (^33P). IC50 value estimated based on the best curve fitting available.
# CDK2/cyclinA = CDK2/cyclinA (Homo sapiens, UniProt P24941); test: DiscoveRx KINOMEscan Kd (KdELECT); assay type: binding
# Description: as §1
# CDK4/cyclinD [2] = target: T1, CDK4/cyclinD (Homo sapiens, UniProt P11802); test: DiscoveRx KINOMEscan Kd (KdELECT); assay type: binding
# T1 sequence (P11802 whole entry): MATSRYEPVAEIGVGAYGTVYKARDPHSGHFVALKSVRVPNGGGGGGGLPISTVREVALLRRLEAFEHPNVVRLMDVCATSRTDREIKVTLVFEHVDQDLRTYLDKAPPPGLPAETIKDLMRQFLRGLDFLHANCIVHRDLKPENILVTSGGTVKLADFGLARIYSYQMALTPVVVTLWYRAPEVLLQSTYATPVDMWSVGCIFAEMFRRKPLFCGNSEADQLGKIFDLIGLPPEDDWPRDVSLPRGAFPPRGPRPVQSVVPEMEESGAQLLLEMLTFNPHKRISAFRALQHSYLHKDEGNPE
# T1 sequence (P24385 whole entry partner): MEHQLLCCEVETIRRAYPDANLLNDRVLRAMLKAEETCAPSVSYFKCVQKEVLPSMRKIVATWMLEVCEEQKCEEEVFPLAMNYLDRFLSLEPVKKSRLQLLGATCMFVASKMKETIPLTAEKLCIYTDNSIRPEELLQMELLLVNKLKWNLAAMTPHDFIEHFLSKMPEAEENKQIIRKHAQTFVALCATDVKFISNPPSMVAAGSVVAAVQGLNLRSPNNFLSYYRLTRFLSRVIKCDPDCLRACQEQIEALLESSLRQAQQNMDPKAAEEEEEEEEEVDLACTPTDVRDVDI
# Description: as §1
# PCTK1 = PCTK1 (Homo sapiens, UniProt Q00536); test: scanMAX panel and Kd follow-up; assay type: binding
# Sequence of PCTK1 (Q00536 whole entry): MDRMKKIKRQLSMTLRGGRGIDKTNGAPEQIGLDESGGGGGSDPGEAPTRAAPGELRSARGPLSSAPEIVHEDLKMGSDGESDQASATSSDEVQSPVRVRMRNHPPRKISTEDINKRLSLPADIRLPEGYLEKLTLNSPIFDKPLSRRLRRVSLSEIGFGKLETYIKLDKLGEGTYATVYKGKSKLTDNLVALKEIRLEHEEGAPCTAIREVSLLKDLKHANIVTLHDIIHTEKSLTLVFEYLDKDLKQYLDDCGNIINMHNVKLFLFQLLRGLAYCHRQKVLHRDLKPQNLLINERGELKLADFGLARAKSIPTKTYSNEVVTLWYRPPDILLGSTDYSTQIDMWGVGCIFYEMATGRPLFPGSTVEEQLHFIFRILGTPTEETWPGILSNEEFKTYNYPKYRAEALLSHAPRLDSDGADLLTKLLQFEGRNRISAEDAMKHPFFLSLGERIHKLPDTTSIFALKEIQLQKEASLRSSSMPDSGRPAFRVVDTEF
# PRKD3 = PRKD3 (Homo sapiens, UniProt O94806); test: scanMAX panel and Kd follow-up; assay type: binding
# Sequence of PRKD3 (O94806 whole entry): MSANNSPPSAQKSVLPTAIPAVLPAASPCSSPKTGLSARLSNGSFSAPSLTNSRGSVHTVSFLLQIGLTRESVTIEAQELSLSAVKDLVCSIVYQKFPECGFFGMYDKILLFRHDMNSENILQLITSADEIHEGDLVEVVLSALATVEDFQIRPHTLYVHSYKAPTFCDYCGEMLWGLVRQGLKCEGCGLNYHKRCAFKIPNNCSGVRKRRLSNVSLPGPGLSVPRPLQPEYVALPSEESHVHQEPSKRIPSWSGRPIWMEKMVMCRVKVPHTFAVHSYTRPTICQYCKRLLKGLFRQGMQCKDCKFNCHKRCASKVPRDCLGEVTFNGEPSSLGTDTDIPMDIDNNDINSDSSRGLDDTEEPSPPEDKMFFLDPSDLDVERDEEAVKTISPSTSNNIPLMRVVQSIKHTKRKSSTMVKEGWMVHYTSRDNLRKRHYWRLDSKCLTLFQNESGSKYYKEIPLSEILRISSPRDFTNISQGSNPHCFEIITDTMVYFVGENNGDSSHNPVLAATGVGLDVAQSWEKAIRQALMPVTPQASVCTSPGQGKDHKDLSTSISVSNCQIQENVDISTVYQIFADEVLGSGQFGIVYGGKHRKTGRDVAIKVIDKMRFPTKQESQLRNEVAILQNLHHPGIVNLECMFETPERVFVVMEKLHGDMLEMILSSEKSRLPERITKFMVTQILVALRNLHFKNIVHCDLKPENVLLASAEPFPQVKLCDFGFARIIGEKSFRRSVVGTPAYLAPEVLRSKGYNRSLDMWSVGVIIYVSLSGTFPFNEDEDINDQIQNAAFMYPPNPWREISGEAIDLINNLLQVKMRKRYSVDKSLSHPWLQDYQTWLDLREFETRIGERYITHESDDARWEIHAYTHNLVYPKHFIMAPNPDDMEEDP
# TAOK1 = TAOK1 (Homo sapiens, UniProt Q7L7X3); test: scanMAX panel and Kd follow-up; assay type: binding
# Sequence of TAOK1 (Q7L7X3 whole entry): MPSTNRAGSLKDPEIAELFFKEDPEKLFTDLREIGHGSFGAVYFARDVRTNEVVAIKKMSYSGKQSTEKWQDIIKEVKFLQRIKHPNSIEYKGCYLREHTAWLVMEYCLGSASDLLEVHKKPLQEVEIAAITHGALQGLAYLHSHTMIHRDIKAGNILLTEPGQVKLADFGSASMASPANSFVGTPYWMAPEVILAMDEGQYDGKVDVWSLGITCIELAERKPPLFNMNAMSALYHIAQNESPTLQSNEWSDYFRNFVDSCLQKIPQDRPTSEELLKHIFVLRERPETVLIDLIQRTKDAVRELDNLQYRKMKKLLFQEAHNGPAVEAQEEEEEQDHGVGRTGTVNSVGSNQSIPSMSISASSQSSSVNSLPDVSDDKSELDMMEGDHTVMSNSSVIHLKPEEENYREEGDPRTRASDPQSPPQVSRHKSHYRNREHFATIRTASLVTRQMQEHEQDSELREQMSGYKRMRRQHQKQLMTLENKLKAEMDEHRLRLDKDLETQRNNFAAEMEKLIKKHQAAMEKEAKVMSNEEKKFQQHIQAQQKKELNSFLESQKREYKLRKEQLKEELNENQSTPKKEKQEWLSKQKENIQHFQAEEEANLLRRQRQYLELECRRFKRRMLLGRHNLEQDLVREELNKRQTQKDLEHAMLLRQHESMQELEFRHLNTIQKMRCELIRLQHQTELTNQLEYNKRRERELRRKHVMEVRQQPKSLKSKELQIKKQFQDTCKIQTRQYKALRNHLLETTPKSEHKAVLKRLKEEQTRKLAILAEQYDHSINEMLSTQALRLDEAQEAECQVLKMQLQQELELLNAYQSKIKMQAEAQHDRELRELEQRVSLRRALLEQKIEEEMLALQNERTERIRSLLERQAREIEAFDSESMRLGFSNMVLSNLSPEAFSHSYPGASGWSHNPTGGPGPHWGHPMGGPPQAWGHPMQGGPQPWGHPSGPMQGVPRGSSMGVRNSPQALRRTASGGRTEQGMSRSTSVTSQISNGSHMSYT
# CDK7/cyclinH = target: T2, CDK7/cyclinH (Homo sapiens, UniProt P50613); test: CDK family kinase profiling, radioisotope-based assay (33P); assay type: biochemical; conditions: read-out: 10-dose IC50
# T2 construct: purchased Reaction Biology
# Description: as §1
# CDK5/P21 = target: T3, CDK5/P21 (Homo sapiens, UniProt Q00535); test: as above; assay type: biochemical; conditions: read-out: 10-dose IC50
# T3 construct: purchased Reaction Biology
# Description: as §1
# CDK9/cyclinT = target: T4, CDK9/cyclinT (Homo sapiens, UniProt P50750); test: as above; assay type: biochemical; conditions: cell-free, read-out: IC50 against CDK9
# T4 construct: purchased Reaction Biology
# T4 sequence (P50750 whole entry): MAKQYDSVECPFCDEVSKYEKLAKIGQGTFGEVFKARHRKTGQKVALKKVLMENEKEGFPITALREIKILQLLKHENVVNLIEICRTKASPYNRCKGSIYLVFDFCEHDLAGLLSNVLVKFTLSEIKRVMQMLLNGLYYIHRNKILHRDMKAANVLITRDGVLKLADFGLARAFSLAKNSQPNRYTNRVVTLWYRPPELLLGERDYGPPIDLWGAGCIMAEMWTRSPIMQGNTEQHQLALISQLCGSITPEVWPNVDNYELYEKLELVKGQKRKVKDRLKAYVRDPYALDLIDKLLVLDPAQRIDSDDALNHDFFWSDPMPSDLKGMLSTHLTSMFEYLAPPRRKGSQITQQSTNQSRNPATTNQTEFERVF
# T4 sequence (O60563 whole entry partner): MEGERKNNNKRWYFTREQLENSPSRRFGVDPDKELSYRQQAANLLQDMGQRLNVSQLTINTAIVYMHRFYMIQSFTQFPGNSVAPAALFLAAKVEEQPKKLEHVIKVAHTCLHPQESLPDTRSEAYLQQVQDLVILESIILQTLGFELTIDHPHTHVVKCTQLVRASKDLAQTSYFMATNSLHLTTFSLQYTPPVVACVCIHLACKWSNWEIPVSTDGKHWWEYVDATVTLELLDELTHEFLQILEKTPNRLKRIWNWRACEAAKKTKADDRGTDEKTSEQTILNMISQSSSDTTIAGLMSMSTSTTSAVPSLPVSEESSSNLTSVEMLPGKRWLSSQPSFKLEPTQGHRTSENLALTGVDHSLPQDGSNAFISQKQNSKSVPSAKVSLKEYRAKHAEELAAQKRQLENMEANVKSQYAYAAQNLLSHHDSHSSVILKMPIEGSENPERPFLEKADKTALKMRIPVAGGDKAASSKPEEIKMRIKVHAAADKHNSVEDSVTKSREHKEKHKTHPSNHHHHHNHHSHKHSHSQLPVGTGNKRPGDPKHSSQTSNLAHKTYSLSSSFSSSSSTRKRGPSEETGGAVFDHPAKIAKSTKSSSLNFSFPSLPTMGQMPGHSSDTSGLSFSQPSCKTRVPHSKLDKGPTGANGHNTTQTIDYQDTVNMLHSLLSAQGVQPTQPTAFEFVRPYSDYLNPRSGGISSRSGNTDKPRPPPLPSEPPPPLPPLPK
# Description: as §1
# CDK4/cyclinD [3] = target: T1, CDK4/cyclinD; test: as above; assay type: biochemical; conditions: read-out: 10-dose IC50
# Description: as §1
# human P450 isozyme 3A4 = target: T5, human P450 isozyme 3A4 (Homo sapiens, UniProt P08684); test: P450 isozyme inhibition assay (baculosomes); assay type: in vitro ADME; conditions: P450 3A4
# T5 construct: made in house; host or cells: insect cells infected with recombinant baculovirus
# T5 sequence (P08684 whole entry): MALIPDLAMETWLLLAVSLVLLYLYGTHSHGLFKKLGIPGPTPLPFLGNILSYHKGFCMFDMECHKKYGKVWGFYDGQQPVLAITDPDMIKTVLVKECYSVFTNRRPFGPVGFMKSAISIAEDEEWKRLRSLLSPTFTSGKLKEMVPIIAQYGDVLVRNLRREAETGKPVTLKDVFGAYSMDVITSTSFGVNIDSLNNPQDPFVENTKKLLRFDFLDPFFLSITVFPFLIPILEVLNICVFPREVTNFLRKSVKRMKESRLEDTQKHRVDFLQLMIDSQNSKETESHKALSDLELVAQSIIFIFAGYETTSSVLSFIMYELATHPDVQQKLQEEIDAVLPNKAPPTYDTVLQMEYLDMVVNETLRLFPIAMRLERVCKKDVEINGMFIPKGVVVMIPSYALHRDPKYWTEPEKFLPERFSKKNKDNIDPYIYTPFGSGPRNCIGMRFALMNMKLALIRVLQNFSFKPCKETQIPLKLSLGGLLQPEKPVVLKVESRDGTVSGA
# Description: (§2) P450 baculosome reagents (i.e., microsomes), were prepared from insect cells infected with recombinant baculovirus containing a human P450 isozyme and a rabbit NAPDH-P450 reductase since only a single P450 isozyme is expressed over human liver microsomes (HLM).
# human P450 isozyme 2D6 = target: T6, human P450 isozyme 2D6 (Homo sapiens, UniProt P10635); test: P450 isozyme inhibition assay (baculosomes); assay type: in vitro ADME; conditions: P450 2D6
# T6 construct: made in house; host or cells: insect cells infected with recombinant baculovirus
# Description: as §2
# human P450 isozyme 2C9 = target: T7, human P450 isozyme 2C9 (Homo sapiens, UniProt P11712); test: P450 isozyme inhibition assay (baculosomes); assay type: in vitro ADME; conditions: P450 2C9
# T7 construct: host or cells: insect cells infected with recombinant baculovirus
# Description: as §2
# human P450 isozyme 1A2 = target: T8, human P450 isozyme 1A2 (Homo sapiens, UniProt P05177); test: P450 isozyme inhibition assay (baculosomes); assay type: in vitro ADME; conditions: P450 1A2
# T8 construct: host or cells: insect cells infected with recombinant baculovirus
# Description: as §2
# human P450 isozyme 2C19 = target: T9, human P450 isozyme 2C19 (Homo sapiens, UniProt P33261); test: P450 isozyme inhibition assay (baculosomes); assay type: in vitro ADME; conditions: P450 2C19
# T9 construct: host or cells: insect cells infected with recombinant baculovirus
# Description: as §2
# [4] = Pharmacokinetic study in male Beagle dogs; assay type: in vivo; conditions: dog, plasma; for Tmax: read-out: Tmax (hours), median (min-max); for Vd: male, Beagle, iv, 1 mg/kg
# Description: Last time of mean concentrations was 24 hours following intravenous bolus injection.
# [5] = system: 22RV1 induced neuroendocrine prostate cancer (NEPC) CDX; test: In vivo tumor efficacy study, 22Rv1 NEPC CDX
# Description: 22Rv1 cells were cultured in RPMI supplemented with 10% FBS and 1% P/S, in a humidified incubator at 37° C. and 5% CO2. Nu/nu Balb/c homozygous mice were procured through Jackson laboratory (Strain 002019). Mice were fed Teklad irradiated (sterilized) mouse diet and bedded with Teklad irradiated (sterilized) corncob bedding from Envigo (Indianapolis, IN). Mice were housed in Optimice carousel sterile quarters with filtered air supply in disposable cages from Animal Care Systems, Inc. (Centennial, CO). A 12-hour light/12-hour dark light cycle is observed, with animal handling only taking place during the light cycle.
# 22Rv1 Implantation: On the day of implantation, cells were trypsinized and allowed to detach from flasks. Trypsin was then neutralized with complete media and cells were spun at 300×g. Media was aspirated and cells were re-suspended in 50:50 Cultrex RPMI (no supplementation) at a concentration of 5×10^7 cells/mL. A volume of 100 μL was injected into the right hind flank of each animal (a total of 5×10^6 cells per mouse). Cells were checked for viability using trypan blue exclusion and found to be >98% viable.
# • All mice were dosed orally, and the observation duration was 21 days […]
# Tumor volumes: Tumor volumes were measured by digital caliper, and volume was calculated using the formula [Width^2×Length]/2. All tumor volume measurements are recorded. […]
# [6] = Pharmacokinetic study in mice; conditions: mouse, in vivo, po
smiles,measurement,setting,value
"CC(C)c1c2cc(-c3ccnc(N[C@H]4CC[C@H](N)C4)n3)ccc2nn1C [Compound I-2, (1S,3S)-[3-[4-(3-isopropyl-2-methylindazol-5-yl)pyrimidin-2-yl]aminocyclopentan-1-yl]-1,3-diamine]",CDK9 downstream targets (Western blot),[1],inhibited the CDK9 downstream targets
same,cell death,C4-2,84%
same,Kd,CDK3/cyclinE,31 nM
same,Kd,CDK2/cyclinA,30 nM
same,Kd,CDK4/cyclinD [2],22 nM
same,Kd,PCTK1; PCTK1,8.2 nM
same,remaining binding at 1 µM,"PCTK1; PCTK1, 1 μM, read-out: % of control activity",0 to 1%
same,Kd,PRKD3; PRKD3,230 nM
same,remaining binding at 1 µM,"PRKD3; PRKD3, 1 μM, read-out: % of control activity",0 to 1%
same,Kd,TAOK1; TAOK1,19 nM
same,remaining binding at 1 µM,"TAOK1; TAOK1, 1 μM, read-out: % of control activity",0 to 1%
same,IC50,CDK7/cyclinH,119 nM
same,IC50,CDK5/P21,245 nM
same,IC50,CDK9/cyclinT,< 5 nM
same,IC50,CDK4/cyclinD [3],22.8 nM
same,IC50,human P450 isozyme 3A4,31100 nM
same,IC50,human P450 isozyme 2D6,100000 nM
same,IC50,human P450 isozyme 2C9,50800 nM
same,IC50,human P450 isozyme 1A2,29400 nM
same,IC50,human P450 isozyme 2C19,28300 nM
same,half-life,[4]; IV 1 mg/kg,4.26 h
same,half-life,[4]; oral 3 mg/kg,5.81 h
same,AUC,[4]; IV 1 mg/kg,529 ± 200 ng·h/mL
same,AUC(0-inf),[4]; IV 1 mg/kg,566 ± 191 ng·h/mL
same,MRT,[4]; IV 1 mg/kg,3.82 ± 1.25 h
same,clearance,[4]; IV 1 mg/kg,31.8 ± 10.7 mL/min/kg
same,C0,"[4]; IV 1 mg/kg, extrapolated concentration at time zero",312 ± 98.3 ng/mL
same,Tmax,[4]; IV 1 mg/kg,0.08 h
same,AUC,[4]; oral 3 mg/kg,1300 ± 233 ng·h/mL
same,AUC(0-inf),[4]; oral 3 mg/kg,1340 ± 242 ng·h/mL
same,Cmax,[4]; oral 3 mg/kg,373 ± 238 ng/mL
same,MRT,[4]; oral 3 mg/kg,4.92 ± 0.97 h
same,bioavailability,"[4]; oral 3 mg/kg vs IV 1 mg/kg, from nominal doses and AUCinf, read-out: % F (oral bioavailability)",83 ± 22%
same,Tmax,[4]; oral 3 mg/kg,1 h
same,Vd,"[4]; IV 1 mg/kg, read-out: Vd",11.3 ± 2.93 L/kg
same,Vd,"[4]; IV 1 mg/kg, read-out: Vss",9.35 ± 2.74 L/kg
same,tumor growth,"[5]; 22Rv1, 30, 50, 65 mg/kg orally once daily, 21 days",inhibit tumor growth in a dose dependent manner
same,tolerability,"[5]; 22Rv1 study, >50 mg/kg dosing levels",Tolerability issues
same,bioavailability,[6],28%

# From patent US20240150322A1, “CDK9 Inhibitors” (Biolexis Therapeutics, Inc., priority 2022, published 2024)
